Measured values: ChEMBL document CHEMBL4602687, “Dual Binding to Orthosteric and Allosteric Sites Enhances the Anticancer Activity of a TRAP1-Targeting Drug” (J Med Chem, 2020)
Positions count from the first letter of the chain named. The source made the active and inactive calls. The rule behind the calls is not given here.

How the values were obtained:
Homo sapiens = species: Homo sapiens; experiment: Inhibition of recombinant full-length human TRAP1 W585/W4F mutant expressed in Escherichia coli BL21 (DE3) assessed as intrinsic fluorescence quenching of tryptophan residues at 10 uM measured after 1 hr by fluorescence spectrophotometric method
[1] = test system: T1, Heat shock protein 75 kDa, mitochondrial (Homo sapiens), Q12931 [E115K,R114E,E403K]; experiment: Stimulation of recombinant […] human TRAP1 E115K/R114E/E403K mutant ATPase activity expressed in Escherichia coli BL21 (DE3) up to 20 uM preincubated for 0.5 hrs followed by ATP addition and measured after 3 hrs by PiColorLock Gold reagent based colorimetric assay
T1 sequence (whole entry): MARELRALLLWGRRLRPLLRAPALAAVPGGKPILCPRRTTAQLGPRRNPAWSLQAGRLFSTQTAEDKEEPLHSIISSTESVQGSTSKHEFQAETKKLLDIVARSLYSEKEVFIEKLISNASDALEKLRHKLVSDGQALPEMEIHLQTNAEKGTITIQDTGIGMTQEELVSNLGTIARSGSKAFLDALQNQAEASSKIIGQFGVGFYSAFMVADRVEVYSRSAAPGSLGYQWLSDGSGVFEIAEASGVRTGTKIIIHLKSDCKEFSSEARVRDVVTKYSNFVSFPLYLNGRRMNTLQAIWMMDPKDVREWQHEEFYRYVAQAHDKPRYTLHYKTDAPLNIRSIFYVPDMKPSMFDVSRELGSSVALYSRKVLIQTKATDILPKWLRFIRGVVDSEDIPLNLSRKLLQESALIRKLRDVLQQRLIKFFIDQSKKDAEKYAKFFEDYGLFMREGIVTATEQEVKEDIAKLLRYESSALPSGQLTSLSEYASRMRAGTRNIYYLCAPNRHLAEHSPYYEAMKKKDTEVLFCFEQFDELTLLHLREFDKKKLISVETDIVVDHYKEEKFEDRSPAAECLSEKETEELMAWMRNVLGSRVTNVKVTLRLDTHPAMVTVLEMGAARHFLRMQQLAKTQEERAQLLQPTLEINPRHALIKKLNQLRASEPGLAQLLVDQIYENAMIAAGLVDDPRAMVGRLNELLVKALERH

[2] = test system: T2, Heat shock protein 75 kDa, mitochondrial (Homo sapiens), Q12931 [R114E]; experiment: Stimulation of recombinant […] human TRAP1 R114E mutant ATPase activity expressed in Escherichia coli BL21 (DE3) up to 20 uM preincubated for 0.5 hrs followed by ATP addition and measured after 3 hrs by PiColorLock Gold reagent based colorimetric assay
T2 sequence (whole entry): T1 sequence (whole entry) with K115E, K403E

[3] = target: T3, Heat shock protein 75 kDa, mitochondrial (Homo sapiens) (UniProt Q12931); experiment: Inhibition of TRAP1 in human PC3 cells assessed as reduction in SDHB expression at 5 uM measured after 2 to 12 hrs by Western blot analysis; format: cell-based; details: PC-3
T3 sequence (whole entry): T1 sequence (whole entry) with E114R, K115E, K403E

Mus musculus = experiment: In vivo inhibition of TRAP1 in nude mouse xenografted with human NCI-H460 cells assessed as increase in SDHB degradation at 5 mg/kg, ip administered daily by Western blot analysis; format: functional, organism-based

Nc1ncnc2c1nc(Sc1cc3c(cc1I)OCO3)n2CCCCCCCCCC[P+](c1ccccc1)(c1ccccc1)c1ccccc1
inhibition (Homo sapiens): Active
Activity [1]: inactive
Activity [2]: Active
inhibition [3]: Active
inhibition (Mus musculus): Active
